The results in this text go back to patent US7723358B2, “Aroyl-O-piperidine derivatives for the treatment of diabetes-related problems” (Merck Patent GmbH, priority 2004, dated 2010).

The experiment deals with T1, microsomal triglyceride transfer protein (MTP) (Mesocricetus auratus, UniProt P55158).
T1 construct: The supernatant comprising the soluble MTP is dialysed against Tris/HCl 150 mM; from tissue; host or cells: golden hamster liver microsomes, deoxycholate-solubilised supernatant, dialysed
T1 sequence (P55158 19-895): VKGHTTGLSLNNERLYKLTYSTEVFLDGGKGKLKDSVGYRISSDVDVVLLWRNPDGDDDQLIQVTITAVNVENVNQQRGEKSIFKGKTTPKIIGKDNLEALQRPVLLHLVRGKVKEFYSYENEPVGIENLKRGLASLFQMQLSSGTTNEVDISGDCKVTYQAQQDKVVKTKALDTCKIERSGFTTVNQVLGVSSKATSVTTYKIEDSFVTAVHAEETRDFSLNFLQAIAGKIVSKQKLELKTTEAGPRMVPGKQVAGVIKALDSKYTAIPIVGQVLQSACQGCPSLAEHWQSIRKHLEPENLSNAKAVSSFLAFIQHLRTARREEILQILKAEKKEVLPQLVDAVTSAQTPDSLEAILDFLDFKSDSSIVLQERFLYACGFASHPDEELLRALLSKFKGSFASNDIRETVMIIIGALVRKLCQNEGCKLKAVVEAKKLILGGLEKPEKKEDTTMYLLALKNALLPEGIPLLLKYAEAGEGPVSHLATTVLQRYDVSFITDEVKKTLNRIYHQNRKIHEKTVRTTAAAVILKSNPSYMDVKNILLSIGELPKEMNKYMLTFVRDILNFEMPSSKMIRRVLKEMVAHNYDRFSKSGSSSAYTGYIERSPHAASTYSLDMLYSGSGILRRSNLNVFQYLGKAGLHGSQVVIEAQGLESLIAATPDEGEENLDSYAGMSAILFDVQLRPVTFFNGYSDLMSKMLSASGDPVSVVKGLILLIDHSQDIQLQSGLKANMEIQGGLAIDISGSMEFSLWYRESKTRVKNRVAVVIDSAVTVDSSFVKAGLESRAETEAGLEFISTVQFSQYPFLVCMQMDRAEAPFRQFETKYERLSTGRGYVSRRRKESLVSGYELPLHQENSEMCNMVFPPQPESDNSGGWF
The experiment is described as follows: Inhibition of MTP activity: transfer of [3H]-triolein from donor liposomes to biotinylated LDL, SPA. The format is biochemical. The note with it: MTP from golden hamster liver; incubation 18-24 hours at 37° C.; read-out: IC50, concentration that allows a 50% inhibition of MTP. On the procedure:
Analysis of the Inhibition of MTP Activity
The inhibition of the activity of microsomal triglyceride transfer protein (MTP) was tested by using the following operating protocol.
The inhibition of MTP activity with a compound can be quantified by observing the inhibition of the transfer of a labelled triglyceride, from a donor particle to an acceptor particle, in the presence of MTP. The procedure for the preparation of MTP is based on the method by Wetterau and Zilversmit (Biochem. Biophys. Acta (1986) 875, 610). A few grams of golden hamster liver are taken and then rinsed several times in a 250 mM sucrose solution at 0° C. All the following steps proceed at +4° C. A homogenate at a concentration of 50% in 250 mM sucrose is prepared using a Teflon mill and then centrifuged for 10 minutes at 10 000×g at +4° C. The supernatant is then centrifuged at 105 000×g for 75 minutes at +4° C. The supernatant is discarded and the microsomal pellet is taken up in 3 ml (per g of starting liver) of Tris/HCl 150 mM pH 8.0. 1-ml aliquot fractions are stored at −80° C. until the time of use.
After thawing a fraction of microsomes (1 ml), 12 ml of refrigerated Tris/HCl 50 mM, KCl 50 mM, MgCl2 5 mM pH 7.4 buffers and 1.2 ml of deoxycholate (0.54% in water) are added. After incubation for 30 minutes at +4° C. with gentle agitation, the suspension is centrifuged at 105 000×g for 75 minutes. The supernatant comprising the soluble MTP is dialysed against Tris/HCl 150 mM, NaCl 40 mM, EDTA 1 mM, 0.02% sodium azide pH 7.4 buffer (5 times one litre over 2-3 days). The MTP is stored at +4° C., is stable for at least 30 days and is used in unmodified form in the test.
The donor particles (liposomes) are prepared from 208 μl of L-phosphatidylcholine at a concentration of 10 mg/ml in chloroform, and 480 μl of [3H]-triolein at a concentration of 0.5 mCi/ml in toluene. After stirring, the solution is evaporated under nitrogen, taken up in 6 ml of Tris/HCl 50 mM, KCl 50 mM, MgCl2 5 mM pH 7.4 buffer and incubated in an ultrasound bath for 30 minutes at room temperature. The liposomes are stored at +4° C. and sonicated again for 10 minutes before each use.
The acceptor particles are biotinylated low density lipoproteins (LDL-biot). These particles are supplied by the company Amersham.
The reaction mixture is prepared in untreated ½ well white plates (Corning Costar) by addition, in the following order, of: 5 μl of HEPES 50 mM, NaCl 150 mM, BSA 0.1% (w/v), 0.05% sodium azide (w/v), pH 7.4 buffer; 5 μl of liposome; 5 μl of LDL-biot; 5 μl of test products in DMSO; 5 μl of MTP. After incubation for 18-24 hours at 37° C., the reaction is stopped by adding 100 μl of Amersham SPA (Scintillation Proximity Assay) beads coupled to streptavidin, and the radioactivity is counted using a Top Count (Packard) machine at least one hour later. The inhibition of the transfer of the triglycerides with a compound is reflected by a reduction in the transferred radioactivity.
The results are expressed in terms of the IC50, i.e. the concentration that allows a 50% inhibition of MTP.
Take `COc1cc(NC(=O)N2CCC(Oc3cccc(NC(=O)c4cccc(C)c4-c4ccc(OC(F)(F)F)cc4)c3)CC2)cc(OC)c1OC` [Example 38, 4-[3-[[[6-methyl-4′-(trifluoromethoxy)[1,1′-biphenyl]-2-yl]carbonyl]amino]phenoxy]-N-(3,4,5-trimethoxyphenyl)-1-piperidine-carboxamide]: the IC50 stood at 422 nM.
Turning to `CSc1ccc(NC(=O)N2CCC(Oc3cccc(NC(=O)c4cccc(C)c4-c4ccc(OC(F)(F)F)cc4)c3)CC2)cc1` [Example 39, N-[4-(methylthio)phenyl]-4-[3-[[[6-methyl-4′-(trifluoromethoxy)[1,1′-biphenyl]-2-yl]-carbonyl]amino]phenoxy]-1-piperidine-carboxamide], the IC50 worked out at 85.7 nM.
The same measure for `COC(=O)c1cccc(NC(=O)N2CCC(Oc3cccc(NC(=O)c4cccc(C)c4-c4ccc(OC(F)(F)F)cc4)c3)CC2)c1` [Example 43, methyl 3-[[[4-[3-[[[6-methyl-4′-(trif1uoro-methoxy)[1,1′-biphenyl]-2-yl]carbonyl]-amino]phenoxy]-1-piperidinyl]carbonyl]-amino]benzoate]: 201 nM; for `CCOC(=O)CCCCCNC(=O)N1CCC(Oc2cccc(NC(=O)c3cccc(C)c3-c3ccc(OC(F)(F)F)cc3)c2)CC1` [Example 45, ethyl 6-[[[4-[3-[[[6-methyl-4′-(trifluorometh-oxy)[1,1′-biphenyl]-2-yl]carbonyl]amino]-phenoxy]-1-piperidinyl]carbonyl]amino]-hexanoate]: 779 nM; for `Cc1cccc(C(=O)Nc2cccc(OC3CCN(C(=O)Nc4ccccc4OC(F)(F)F)CC3)c2)c1-c1ccc(OC(F)(F)F)cc1` [Example 47, 4-[3-[[[6-methyl-4′-(trifluoromethoxy)[1,1′-biphenyl]-2-yl]carbonyl]amino]phenoxy]-N-(2-(trifluoromethoxy)phenyl]-1-piperi-dinecarboxamide]: 158 nM.
As to `COC(=O)[C@@H](NC(=O)N1CCC(Oc2cccc(NC(=O)c3cccc(C)c3-c3ccc(OC(F)(F)F)cc3)c2)CC1)C(C)C` [Example 49, methyl N-[[4-[3-[[[6-methyl-4′-(trifluoro-methoxy)[1,1′-biphenyl]-2-yl]carbonyl]-amino]phenoxy]-1-piperidinyl]carbonyl]-L-valinate], the IC50 stood at 551 nM.
On to `Cc1cccc(C(=O)Nc2cccc(OC3CCN(C(=O)Nc4ccc(N(C)C)cc4)CC3)c2)c1-c1ccc(OC(F)(F)F)cc1` [Example 51, N-[4-(dimethylamino)phenyl]-4-[3-[[[6-methyl-4′-(trifluoromethoxy)[1,1′-biphenyl]-2-yl]carbonyl]amino]phenoxy]-1-piperidinecarboxamide], for which the IC50 is 111 nM.
On to `Cc1cccc(C(=O)Nc2cccc(OC3CCN(C(=O)NC4CCCC4)CC3)c2)c1-c1ccc(OC(F)(F)F)cc1` [Example 57, N-cyclopentyl-4-[3-[[[6-methyl-4′-(trifluoro-methoxy)[1,1′-biphenyl]-2-yl]carbonyl]-amino]phenoxy]-1-piperidinecarboxamide], for which the IC50 came out at 187 nM.
With `Cc1cccc(C(=O)Nc2cccc(OC3CCN(Cc4ccccc4)CC3)c2)c1-c1ccc(OC(F)(F)F)cc1` [Example 58, [1,1′-biphenyl]-6-methyl-N-[3-[[1-(phenyl-methyl)-4-piperidinyl]oxy]phenyl]-4′-(trifluoromethoxy)-2-carboxamide], the IC50 came out at 74.1 nM.
The same measure for `Cc1cccc(C(=O)Nc2cccc(OC3CCN(Cc4cccs4)CC3)c2)c1-c1ccc(OC(F)(F)F)cc1` [Example 59, [1,1′-biphenyl]-6-methyl-N-[3-[[1-(2-thienylmethyl)-4-piperidinyl]oxy]phenyl]-4′-(trifluoromethoxy)-2-carboxamide]: 186 nM.
The same measure for `Cc1cccc(C(=O)Nc2cccc(OC3CCN(Cc4cc5ccccc5o4)CC3)c2)c1-c1ccc(OC(F)(F)F)cc1` [Example 60, N-[3-[[1-(2-benzofuranylmethyl)-4-piperi-dinyl]oxy]phenyl]-6-methyl-4′-(trifluoro-methoxy)-[1,1′-biphenyl]-2-carboxamide]: 240 nM; for `Cc1ccccc1NC(=O)N1CCC(Oc2cccc(NC(=O)c3cccc(C)c3-c3ccc(OC(F)(F)F)cc3)c2)CC1` [Example 62, N-(2-methylphenyl)-4-[3-[[[6-methyl-4′-(trifluoromethoxy)[1,1′-biphenyl]-2-yl]-carbonyl]amino]phenoxy]-1-piperidine-carboxamide]: 119 nM; for `Cc1cccc(C(=O)Nc2cccc(OC3CCN(Cc4ccncc4)CC3)c2)c1-c1ccc(OC(F)(F)F)cc1` [Example 66, 6-methyl-N-[3-[[1-(4-pyridinylmethyl)-4-piperidinyl]oxy]phenyl]-4′-(trifluorometh-oxy)[1,1′-biphenyl]-2-carboxamide]: 189 nM.
Regarding `CC(C)(C)OC(=O)N1CCC(Oc2cccc(NC(=O)c3ccccc3-c3ccc(OC(F)(F)F)cc3)c2)CC1` [Example 67, 1,1-dimethylethyl 4-[3-[[[4′-(trifluorometh-oxy)[1,1′-biphenyl]-2-yl]carbonyl]amino]-phenoxy]-1-piperidinecarboxylate], the IC50 stood at 234 nM.
Turning to `CCOC(=O)N1CCC(Oc2cccc(NC(=O)c3ccccc3-c3ccc(C(F)(F)F)cc3)c2)CC1` [Example 77, ethyl 4-[3-[[[4′-(trifluoromethyl)[1,1′-biphenyl]-2-yl]carbonyl]amino]phenoxy]-1-piperidinecarboxylate], the IC50 was determined as 82.5 nM.
As for `Cc1cccc(C(=O)Nc2cccc(OC3CCN(CC4CCOC4)CC3)c2)c1-c1ccc(OC(F)(F)F)cc1` (stereo not drawn) [Example 78, 6-methyl-N-[3-[[1-[(tetrahydro-3-furanyl)-methyl]-4-piperidinyl]oxy]phenyl]-4′-(tri-fluoromethoxy)[1,1′-biphenyl]-2-carbox-amide], the IC50 amounted to 447 nM.
The same measure for `Cc1cccc(C(=O)Nc2cccc(OC3CCN(Cc4cccnc4)CC3)c2)c1-c1ccc(OC(F)(F)F)cc1` [Example 81, 6-methyl-N-[3-[[1-(3-pyridinylmethyl)-4-piperidinyl]oxy]phenyl]-4′-(trifluorometh-oxy)[1,1′-biphenyl]-2-carboxamide]: 315 nM; for `Cc1cccc(CN2CCC(Oc3cccc(NC(=O)c4cccc(C)c4-c4ccc(OC(F)(F)F)cc4)c3)CC2)n1` [Example 83, 6-methyl-N-[3-[[1-[(6-methyl-2-pyridinyl)-methyl]-4-piperidinyl]oxy]phenyl]-4′-(trifluoromethoxy)[1,1′-biphenyl]-2-carboxamide]: 633 nM.
